Measured values taken from US12065430B2, “Indazole compound or salt thereof” (TAIHO PHARMACEUTICAL CO., LTD., priority 2018, dated 2024).

Each compound was assayed against G12C K-Ras4B (1-169) (Homo sapiens (Human), UniProt P01116, G12C) (assay: Test of compounds on whether to bind to KRASG12C (LC-MS compound binding rate)). Details: final compound concentration of 2 μM, 1 μM protein, 25° C. for 2 hours.
Experimental: Test compounds were prepared in the form of a 10 mM DMSO solution.
K-Ras4B (1-169) and G12C K-Ras4B (1-169) proteins were mixed and diluted with a buffer (1×TBS, 0.1 mM TCEP) to prepare individual 1 μM protein solutions. A 10 mM test compound was diluted tenfold with DMSO to make a 1 mM solution, and then diluted fivefold with DMSO to make a 200 μM solution. The 200 μM solution was further diluted fivefold to make a 40 μM solution. When the final compound concentration was 10 μM, 1 μL of a 200 μM test compound was added to 19 μL of a 1 μM protein solution. When the final compound concentration was 2 μM, 1 μL of a 40 μM test compound was added to 19 μL of a 1 μM protein solution. The mixtures were stored in an incubator at 25° C. for 2 hours, and 80 μL of a 1×TBS solution containing 0.2% formic acid was added thereto to end the reaction, followed by LC-MS measurement. LC-MS measurement was performed using Xevo G2-S Q-Tof manufactured by Waters, and reverse-phase chromatography was performed with a desalting column. A mass spectrum of positive ions was obtained by electrospray. For a mass spectrum, a spectrum of a polyvalent ion was collectively converted to a molecular weight by using OpenLynx software by the MaxEnt technique, and a compound binding rate was obtained from the ratio of a signal intensity that corresponds to the molecular weight of a protein to a signal intensity that corresponds to the molecular weight of a compound binding to the protein.
By obtaining the compound binding rate for K-Ras4B (1-169) and the compound binding rate for G12C K-Ras4B (1-169) at the same time, information of the selectivity for G12C K-Ras4B (1-169) was obtained at the same time.
The test compounds were measured at their final compound concentration of 2 μM. […] Almost no compounds of the present invention binded to K-Ras4B (1-169). The “binding rate” (%) for each of K-Ras4B (1-169) and G12C K-Ras4B (1-169) refers to the ratio of the signal intensity of binded forms to the sum of the signal intensity of non-binded forms and the signal intensity of binded forms.

Chain of G12C K-Ras4B (1-169) (P01116 other isoform, or with tags, fused parts or gaps G12C): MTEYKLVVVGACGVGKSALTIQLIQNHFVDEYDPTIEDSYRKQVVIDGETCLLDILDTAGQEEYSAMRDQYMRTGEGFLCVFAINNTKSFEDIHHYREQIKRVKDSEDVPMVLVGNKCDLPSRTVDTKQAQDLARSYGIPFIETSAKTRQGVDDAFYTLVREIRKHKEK

| Structure (SMILES) | binding rate for G12C K-Ras4B (1-169) |
| --- | --- |
| C=CC(=O)N1CC(NC(=O)c2c(Cl)nc(CNc3n[nH]c4cc(Cl)c(C(C)C)cc34)n2C(C)C)C1 [Example 45, N-(1-acryloylazetidin-3-yl)-4-chloro-2-(((6-chloro-5-isopropyl-1H-indazol-3-yl)amino)methyl)-1-isopropyl-1H-imidazole-5-carboxamide] | A (a binding rate of 80% or more is rated “A,”) |
| C=CC(=O)N1CC(NC(=O)c2c(C)nc(CNc3n[nH]c4cc(Cl)c(C(C)(C)C)cc34)n2C)C(F)(F)C1 (centres unmarked) [Example 53, N-(1-acryloyl-4,4-difluoropyrrolidin-3-yl)-2-(((5-(tert-butyl)-6-chloro-1H-indazol-3-yl)amino)methyl)-1,4-dimethyl-1H-imidazole-5-carboxamide] | B (a binding rate of 60% or more and less than 80% is rated “B,”) |
| C=CC(=O)N1C[C@H](NC(=O)c2c(C(F)F)nc(CNc3n[nH]c4cc(Cl)c(C(C)(C)C)cc34)n2C)[C@@H](F)C1 [Example 70, N-((3S,4S)-1-acryloyl-4-fluoropyrrolidin-3-yl)-2-(((5-(tert-butyl)-6-chloro-1H-indazol-3-yl)amino)methyl)-4-(difluoromethyl)-1-methyl-1H-imidazole-5-carboxamide] | A (a binding rate of 80% or more is rated “A,”) |
| C=CC(=O)N1CC[C@@H](NC(=O)c2c(F)nc(CNc3n[nH]c4cc(Cl)c(C(C)(C)C)cc34)n2C)C1 [Example 72, (R)—N-(1-acryloylpyrrolidin-3-yl)-2-(((5-(tert-butyl)-6-chloro-1H-indazol-3-yl)amino)methyl)-4-fluoro-1-methyl-1H-imidazole-5-carboxamide] | B (a binding rate of 60% or more and less than 80% is rated “B,”) |
| C=CC(=O)N1CC(NC(=O)c2c(Cl)nc(CNc3n[nH]c4cc(Cl)c(C(C)(C)C)cc34)n2-c2ccccn2)C1 [Example 94, N-(1-acryloylazetidin-3-yl)-2-(((5-(tert-butyl)-6-chloro-1H-indazol-3-yl)amino)methyl)-4-chloro-1-(pyridin-2-yl)-1H-imidazole-5-carboxamide] | B (a binding rate of 60% or more and less than 80% is rated “B,”) |
| C=CC(=O)N1CC(NC(=O)c2c(C)nc(CNc3n[nH]c4cc(Cl)c(C(C)(C)C)cc34)n2C(C)(C)C)C1 [Example 24, N-(1-acryloylazetidin-3-yl)-1-(tert-butyl)-2-(((5-(tert-butyl)-6-chloro-1H-indazol-3-yl)amino)methyl)-4-methyl-1H-imidazole-5-carboxamide] | C (a binding rate of 40% or more and less than 60% is rated “C,”) |
| C=CC(=O)N1C[C@@H](CO)[C@@H](NC(=O)c2c(C)nc(CNc3n[nH]c4cc(Cl)c(C(C)(C)C)cc34)n2C)C1 [Example 58, N-((3R,4R)-1-acryloyl-4-(hydroxymethyl)pyrrolidin-3-yl)-2-(((5-(tert-butyl)-6-chloro-1H-indazol-3-yl)amino)methyl)-1,4-dimethyl-1H-imidazole-5-carboxamide] | B (a binding rate of 60% or more and less than 80% is rated “B,”) |
| C/C=C/C(=O)N1CC(NC(=O)c2c(C)nc(CNc3n[nH]c4cc(Cl)c(C(C)(C)C)cc34)n2C(C)C)C1 [Example 81, (E)-N-(1-(but-2-enoyl)azetidin-3-yl)-2-(((5-(tert-butyl)-6-chloro-1H-indazol-3-yl)amino)methyl)-1-isopropyl-4-methyl-1H-imidazole-5-carboxamide] | E (a binding rate of less than 20% is rated “E.”) |
| C=CC(=O)N1CC(NC(=O)c2c(C#N)nc(CNc3n[nH]c4cc(Cl)c(C(C)(C)C)cc34)n2C)C1 [Example 28, N-(1-acryloylazetidin-3-yl)-2-(((5-(tert-butyl)-6-chloro-1H-indazol-3-yl)amino)methyl)-4-cyano-1-methyl-1H-imidazole-5-carboxamide] | B (a binding rate of 60% or more and less than 80% is rated “B,”) |
| C=CC(=O)N1CC[C@@H](NC(=O)c2c(Cl)nc(CNc3n[nH]c4cc(Cl)c(C(C)(C)C)cc34)n2C)C1 [Example 73, (R)—N-(1-acryloylpyrrolidin-3-yl)-2-(((5-(tert-butyl)-6-chloro-1H-indazol-3-yl)amino)methyl)-4-chloro-1-methyl-1H-imidazole-5-carboxamide] | B (a binding rate of 60% or more and less than 80% is rated “B,”) |
| C=CC(=O)N1CCN(C(=O)c2c(C)nc(CNc3n[nH]c4cc(Cl)c(C(C)(C)C)cc34)n2C)CC1 [Example 50, 1-(4-(2-(((5-(Tert-butyl)-6-chloro-1H-indazol-3-yl)amino)methyl)-1,4-dimethyl-1H-imidazole-5-carbonyl)piperazin-1-yl)prop-2-en-1-one] | C (a binding rate of 40% or more and less than 60% is rated “C,”) |
| C=CC(=O)N1C[C@@H](CF)[C@@H](NC(=O)c2c(C)nc(CNc3n[nH]c4cc(Cl)c(C(C)(C)C)cc34)n2C)C1 [Example 66, N-((3R,4R)-1-acryloyl-4-(fluoromethyl)pyrrolidin-3-yl)-2-(((5-(tert-butyl)-6-chloro-1H-indazol-3-yl)amino)methyl)-1,4-dimethyl-1H-imidazole-5-carboxamide] | A (a binding rate of 80% or more is rated “A,”) |
| C=CC(=O)N1CC(NC(=O)c2c(Cl)nc(CNc3n[nH]c4cc(Cl)c(C(C)(C)C)cc34)n2CC2CCCC2)C1 [Example 110, N-(1-acryloylazetidin-3-yl)-2-(((5-(tert-butyl)-6-chloro-1H-indazol-3-yl)amino)methyl)-4-chloro-1-(cyclopentylmethyl)-1H-imidazole-5-carboxamide] | A (a binding rate of 80% or more is rated “A,”) |
| C=CC(=O)N1CC(NC(=O)c2oc(CNc3n[nH]c4cc(Cl)c(C(C)(C)C)cc34)nc2C)C1 [Example 11, N-(1-acryloylazetidin-3-yl)-2-(((5-(tert-butyl)-6-chloro-1H-indazol-3-yl)amino)methyl)-4-methyloxazole-5-carboxamide] | B (a binding rate of 60% or more and less than 80% is rated “B,”) |
| Cc1nc(CNc2n[nH]c3cc(Cl)c(C(C)(C)C)cc23)n(C(C)C)c1C(=O)NC1CN(C(=O)/C=C\Cl)C1 [Example 83, (Z)-2-(((5-(tert-butyl)-6-chloro-1H-indazol-3-yl)amino)methyl)-N-(1-(3-chloroacryloyl)azetidin-3-yl)-1-isopropyl-4-methyl-1H-imidazole-5-carboxamide] | D (a binding rate of 20% or more and less than 40% is rated “D,”) |
| [2H]C([2H])(Nc1n[nH]c2cc(Cl)c(C(C)(C)C)cc12)c1nc(C)c(C(=O)NC2CN(C(=O)C=C)C2)n1C [Example 5, N-(1-acryloylazetidin-3-yl)-2-(((5-(tert-butyl)-6-chloro-1H-indazol-3-yl)amino)methyl-d2)-1,4-dimethyl-1H-imidazole-5-carboxamide] | A (a binding rate of 80% or more is rated “A,”) |
| C=CC(=O)N1CC(NC(=O)c2csc(CNc3n[nH]c4cc(Cl)c(C(C)(C)C)cc34)n2)C1 [Example 7, N-(1-acryloylazetidin-3-yl)-2-(((5-(tert-butyl)-6-chloro-1H-indazol-3-yl)amino)methyl)thiazole-4-carboxamide] | D (a binding rate of 20% or more and less than 40% is rated “D,”) |
